Results reported in PubChem BioAssay (NCI).
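Growth conditions: 96-well plates. Treatment: test compound, 48 hours, 5 concentrations. Analysis: linear interpolation between bracketing concentrations; unreached endpoints set to highest concentration. Here, GI50 denotes the concentration required for 50% inhibition of growth. TGI is the concentration that stops growth completely.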

Assays:
Test in all cases: DTP human tumour cell line panel, 48 h
HCC-2998 colon = tested on: HCC-2998 colon
HCT-116 colon = tested on: HCT-116 colon
HL-60(TB) leukemia = tested on: HL-60(TB) leukemia
HOP-92 NSCLC = tested on: HOP-92 NSCLC
KM12 colon = tested on: KM12 colon
MDA-N = tested on: MDA-N
SF-268 CNS = tested on: SF-268 CNS
SF-295 CNS = tested on: SF-295 CNS
SN12C renal = tested on: SN12C renal
SK-MEL-5 melanoma = tested on: SK-MEL-5 melanoma

SMILES | TGI (HCC-2998 colon) | TGI (HCT-116 colon) | TGI (HL-60(TB) leukemia) | TGI (HOP-92 NSCLC) | TGI (KM12 colon) | TGI (MDA-N) | TGI (SF-268 CNS) | TGI (SF-295 CNS) | TGI (SN12C renal) | TGI (SK-MEL-5 melanoma) | GI50 (HCC-2998 colon) | GI50 (HCT-116 colon) | GI50 (HL-60(TB) leukemia) | GI50 (HOP-92 NSCLC) | GI50 (KM12 colon) | GI50 (SF-268 CNS) | GI50 (SF-295 CNS) | GI50 (SK-MEL-5 melanoma)
COc1cccc(OC/C(N=Cc2ccncc2)=N/NC(=O)c2ccncc2)c1 | > 100 µM | > 100 µM | > 100 µM | > 100 µM | > 100 µM | > 100 µM | > 100 µM | > 100 µM | > 100 µM |  |  |  |  |  |  |  |  | 
CCCCN(CCCC)C1=Nc2ccccc2-n2c(nnc2C(=O)OCC)C1 | > 100 µM | > 100 µM | 40.9 µM | 81.5 µM | > 100 µM |  | > 100 µM | > 100 µM | > 100 µM | 38.5 µM |  |  |  |  |  |  |  | 
COc1c(-c2ccc(F)cc2)oc2cc(O)cc(O)c2c1=O | 31.9 µM | > 100 µM | 70.1 µM | > 100 µM | 98.4 µM | 62 µM | > 100 µM | 83.9 µM | 83.6 µM | 30.1 µM |  |  |  |  |  |  |  | 
COC(=O)c1c(C)cccc1C1CN=NC12Cc1cccc(C)c1C2=O (centres undefined) | > 100 µM | > 100 µM | 33.6 µM | 47.6 µM | > 100 µM | > 100 µM | > 100 µM |  | > 100 µM | 40.1 µM |  |  |  |  |  |  |  | 
COC(C/C=C\C=C\CC/C=C/CC(C)/C=C/C(=C\C(=O)O)CC(=O)O)/C(C)=C\C=C(/C)C(=O)O (centres undefined) | > 100 µM | > 100 µM |  | > 100 µM | > 100 µM | > 100 µM | > 100 µM | > 100 µM | > 100 µM | > 100 µM |  |  |  |  |  |  |  | 
O=c1[nH]nc(N/N=C\c2ccc(Cl)cc2)c2ccccc12 |  | 53.2 µM | > 100 µM | 34.5 µM | 52.3 µM |  | 55.5 µM | 34 µM | 73 µM | 39.3 µM |  |  |  |  |  |  |  | 
C/C(=C\COP(=O)(O)OP(=O)(O)O)CC/C=C(\C)CNc1ccccc1 |  | > 50 µM |  |  | > 50 µM |  | > 50 µM | > 50 µM | > 50 µM | > 50 µM |  |  |  |  |  |  |  | 
NNc1nnc(-c2ccccc2)nc1Cc1ccccc1 | > 100 µM | > 100 µM | 38 µM |  | > 100 µM |  | > 100 µM |  | 51.6 µM | > 100 µM |  |  |  |  |  |  |  | 
COc1ccc(C(=O)/C=C/c2ccc(OCCCOc3ccc(/C=C/C(=O)c4ccc(OC)c(OC)c4)cc3)cc2)cc1OC | > 100 µM | > 100 µM | > 100 µM |  | > 100 µM | > 100 µM | > 100 µM | > 100 µM | > 100 µM | > 100 µM |  |  |  |  |  |  |  | 
CCn1c(SCc2nnc(Nc3ccccc3)s2)nc2ccccc2c1=O | 31.7 µM | 3.97 µM |  | 9.11 µM | > 48.9 µM | > 52.1 µM | 22.3 µM | 6.87 µM | 18.2 µM | 32.5 µM |  |  |  |  |  |  |  | 
COc1ccc(C2C3=CONC3CC3CCCCC32)cc1 (centres undefined) | 47.3 µM | > 100 µM | > 100 µM |  |  |  | > 100 µM |  |  | > 100 µM |  |  |  |  |  |  |  | 
S=c1oc(CCCCCCCCc2nn(CNc3ccc(Cl)cc3)c(=S)o2)nn1CNc1ccc(Cl)cc1 | > 100 µM | > 100 µM |  | > 100 µM | > 100 µM | > 100 µM | > 100 µM | > 100 µM | > 100 µM | 39.8 µM |  |  |  |  |  |  |  | 
CCOC(=O)/C(C1=N[C@H](C(=O)OCC)CS1)=C(\O)c1ccccc1 | > 100 µM | > 100 µM | > 100 µM |  | > 100 µM |  | > 100 µM | > 100 µM | > 100 µM | > 100 µM |  |  |  |  |  |  |  | 
COc1ccc(-c2cc(-c3ccc(OC)c(OC)c3)nc(SCCCC(=O)NO)n2)cc1 | 5.63 µM | 13.7 µM | 5.99 µM | 5.63 µM | > 100 µM |  | 5.45 µM | 3.77 µM |  | 3.68 µM | 2140 nM | 960 nM | 1640 nM | 1500 nM | 2230 nM | 1970 nM | 1740 nM | 1820 nM
CCCOC1OC(CS(=O)(=O)O)C(OC(C)=O)C(OC(C)=O)C1OC(C)=O (centres undefined) | > 100 µM | > 100 µM | > 100 µM | > 100 µM | > 100 µM | > 100 µM |  | > 100 µM | > 100 µM | > 100 µM |  |  |  |  |  |  |  | 
Nc1cc2ncnc(Nc3cccc(Br)c3)c2cn1 |  | > 100 µM | > 100 µM | > 100 µM | 63.9 µM | > 100 µM | > 100 µM | 71.8 µM | > 100 µM | > 100 µM |  |  |  |  |  |  |  | 
Cc1c(Cl)c(=O)oc2cc(OCC(O)COC(C)C)ccc12 (centres undefined) | 37.3 µM | > 100 µM | 56.9 µM | > 100 µM | > 100 µM | > 100 µM | > 100 µM | > 100 µM |  | 38.3 µM |  |  |  |  |  |  |  | 
O=c1oc2ccccc2c(O)c1C(c1ccc(O)cc1)c1c(O)c2ccccc2oc1=O | > 100 µM | > 100 µM |  | > 100 µM | > 100 µM | > 100 µM | 67.2 µM |  | > 100 µM | > 100 µM |  |  |  |  |  |  |  | 
O=[N+]([O-])c1cccc([N+](=O)[O-])c1Cl |  | > 100 µM | 24.2 µM | 45.3 µM | 29.5 µM |  | 46.5 µM | 34.8 µM | 79.9 µM | 32.7 µM |  |  |  |  |  |  |  | 
COc1ccc(Nc2nc(NNC(=O)Cc3ccccc3)nc(NNC(=O)c3ccncc3)n2)cc1 | > 10 µM | > 10 µM |  | > 10 µM | > 10 µM | > 10 µM | > 10 µM | > 10 µM | > 10 µM | > 10 µM |  |  |  |  |  |  |  | 
COc1ccc2c3c([nH]c2c1)-c1nc2ccccc2c(=O)n1CC3 | > 25 µM | > 25 µM | > 25 µM |  | > 25 µM | > 25 µM | > 25 µM | > 25 µM | > 25 µM | > 25 µM |  |  |  |  |  |  |  | 
